{"source": "patent US12221445B2", "about": "“Crystalline salts of 5-methyl-(6S)-tetrahydrofolic acid and amino ethyl esters” (MERCK PATENT GMBH, priority 2018, dated 2025)", "key": {"[1]": {"experiment": "Kinetic solubility in water (one minute agitation, gravimetric evaluation)", "details": "for amount dissolved within one minute in 2.00 ml water: according to Example 6; for kinetic solubility (mg of 5-methyl-(6S)-tetrahydrofolic acid per mL): purified/de-ionized water, room temperature, agitated one minute, expressed as 5-methyl-(6S)-tetrahydrofolic acid", "description": "42.3 mg of the anhydrous form of the crystalline salt of 5-methyl-(6S)-tetrahydrofolic acid and L-phenylalanine ethyl ester according to Example 4 was weighed into a 7 mL glass vial with a screw cap. 2.00 mL of purified/de-ionized water (for instance water for chromatography) was added to the solid using an adjustable volumetric pipette. The mixture was vigorously agitated at room temperature for one minute.\nThe solution was filtered by centrifugal filtration and 1.50 mL of the aqueous solution was transferred into a tared glass vial (about 10 mL volume). The water was evaporated in an air dryer at 40° C. for about 15 hours, then at 50° C. for about eight hours, subsequently drying was completed at 50° C. under vacuum (10 to 20 mbar) for about 13 hours. The solubility was determined by gravimetric evaluation of the solid residue.\n2.00 mL of purified/de-ionized water (for instance water for chromatography) was added to the solid using an adjustable volumetric pipette. The mixture was vigorously agitated at room temperature for one minute. […] The suspension was filtered by centrifugal filtration and 1.50 mL of the aqueous solution was transferred into a tared glass vial (about 10 mL volume). The water was evaporated in an air dryer at 40° C. for about 15 hours, then at 50° C. for about eight hours, subsequently drying was completed at 50° C. under vacuum (10 to 20 mbar) for about 13 hours. The solubility was determined by gravimetric evaluation of the solid residue."}, "[2]": {"details": "at 50% to 60% relative humidity; listed as crystalline salt of 5-methyl-(6S)-tetrahydrofolic acid and L-methionine ethyl es"}, "[3]": {"details": "at room temperature; calcium salt; cited from earlier work"}, "[4]": {"experiment": "Dynamic water vapor sorption (DVS) experiment", "type": "physicochemical", "details": "FIG. 3; for change of relative sample mass during DVS test: RH program 50→20→75→50%, 5% per hour; for change in water content: relative humidity range between 20% and 75%", "description": "DVS measurements are typically performed with an SPS11-100n “Sorptions Prufsystem” from ProUmid (formerly “Projekt Messtechnik”), August-Nagel-Str. 23, 89079 Ulm (Germany).\n22 mg of the salt of 5-methyl-(6S)-tetrahydrofolic acid with L-phenylalanine ethyl ester Form B according to Example 2 was weighed into an aluminum sample pan for DVS measurement. A DVS measurement was performed. For relative humidity (RH) scans, change rates of 5% per hour were used. The sample pan was placed into the instrument and a defined relative humidity change program was started according to the following steps: • (1) Maintained RH for 2 hours at 50%, then • (2) scanned RH from 50→20% at a rate of 5% per hour and maintained RH at 20% for 10 hours, then • (3) scanned RH from 20→75% at a rate of 5% per hour and maintained RH at 75% for 10 hours, then • (4) scanned RH from 75→50% RH at a rate of 5% per hour and maintained RH at 50% for two hours."}}, "note": "Counter-ions that a name gives are not always drawn.", "data": [{"compound": "5-methyl-(6S)-tetrahydrofolic acid L-methionine ethyl ester salt", "values": [{"measurement": "kinetic solubility expressed as 5-methyl-(6S)-tetrahydrofolic acid", "setting": "[1]; at r.t., corresponds to mg/ml of 5-methyl-(6S)-tetrahydrofolic acid", "result": "greater than 18 mg/ml"}]}, {"compound": "5-methyl-(6S)-tetrahydrofolic acid L-methionine ethyl ester salt [Example 7]", "values": [{"measurement": "water content", "setting": "[2]", "result": "below 1%"}]}, {"compound": "5-methyl-(6S)-tetrahydrofolic acid L-methionine ethyl ester salt [Example 8]", "values": [{"measurement": "water content", "setting": "[2]", "result": "about 5%"}]}, {"compound": "5-methyl-(6S)-tetrahydrofolic acid calcium salt [calcium salt (Form I)]", "values": [{"measurement": "aqueous solubility", "setting": "[3]", "result": "about 10 mg/ml"}]}, {"compound": "5-methyl-(6S)-tetrahydrofolic acid calcium salt [calcium salt (Form III)]", "values": [{"measurement": "aqueous solubility", "setting": "[3]", "result": "about 2.5 mg/ml"}]}, {"compound": "CCOC(=O)[C@@H](N)Cc1ccccc1.CCOC(=O)[C@@H](N)Cc1ccccc1.CN1c2c([nH]c(N)nc2=O)NC[C@@H]1CNc1ccc(C(=O)N[C@@H](CCC(=O)O)C(=O)O)cc1", "note": "[5-methyl-(6S)-tetrahydrofolic acid L-phenylalanine ethyl ester 1:2 salt]", "values": [{"measurement": "amount dissolved within one minute in 2.00 ml water", "setting": "[1]", "result": 11.3, "unit": "mg"}, {"measurement": "improvement of kinetic solubility versus calcium salt metastable Form I", "setting": "[1]; versus the known (metastable Form I) of the calcium salt", "result": "about 50%"}, {"measurement": "change of relative sample mass during DVS test", "setting": "[4]", "result": "less than 0.3%"}, {"measurement": "change in water content", "setting": "[4]", "result": "less than 0.3%"}]}, {"compound": "CN1c2c(nc(N)[nH]c2=O)NC[C@@H]1CNc1ccc(C(=O)N[C@@H](CCC(=O)O)C(=O)O)cc1", "note": "[5-methyl-(6S)-tetrahydrofolic acid calcium salt, reference compound]", "values": [{"measurement": "amount dissolved within one minute in 2.00 ml water", "setting": "[1]", "result": 9.0, "unit": "mg"}, {"measurement": "kinetic solubility (mg of 5-methyl-(6S)-tetrahydrofolic acid per mL)", "setting": "[1]", "result": 9.0, "unit": "mg per mL"}, {"measurement": "solubility kinetic at 1 min", "setting": "[1]; water, thermodynamic from solid", "result": "< 10000", "unit": "µg/mL"}, {"measurement": "change of relative sample mass during DVS test", "setting": "[4]", "result": "about 3%"}, {"measurement": "change in water content", "setting": "[4]", "result": "about 3%"}]}, {"compound": "CCOC(=O)[C@@H](N)Cc1ccccc1.CCOC(=O)[C@@H](N)Cc1ccccc1.CN1c2c([nH]c(N)nc2=O)NC[C@@H]1CNc1ccc(C(=O)N[C@@H](CCC(=O)O)C(=O)O)cc1", "note": "[Example 4, 5-methyl-(6S)-tetrahydrofolic acid L-phenylalanine ethyl ester 1:2 salt]", "values": [{"measurement": "kinetic solubility (mg of 5-methyl-(6S)-tetrahydrofolic acid per mL)", "setting": "[1]", "result": 11.3, "unit": "mg per mL"}]}]}
